Experimental data: patent publication US10227323B2, “Glucosylceramide synthase inhibitors for the treatment of diseases” (BIOMARIN PHARMACEUTICAL INC., priority 2013, dated 2019)

The molecules below were run against T1, GCS (Canis lupus familiaris, UniProt A0A8I3MXG6) (assay: Assay 1: GCS Enzymatic Assay (MDCK cell lysate, C6-NBD-Ceramide, LC/MS)). Conditions: Table 2; data marked by *.
T1 sequence (A0A8I3MXG6 1-394): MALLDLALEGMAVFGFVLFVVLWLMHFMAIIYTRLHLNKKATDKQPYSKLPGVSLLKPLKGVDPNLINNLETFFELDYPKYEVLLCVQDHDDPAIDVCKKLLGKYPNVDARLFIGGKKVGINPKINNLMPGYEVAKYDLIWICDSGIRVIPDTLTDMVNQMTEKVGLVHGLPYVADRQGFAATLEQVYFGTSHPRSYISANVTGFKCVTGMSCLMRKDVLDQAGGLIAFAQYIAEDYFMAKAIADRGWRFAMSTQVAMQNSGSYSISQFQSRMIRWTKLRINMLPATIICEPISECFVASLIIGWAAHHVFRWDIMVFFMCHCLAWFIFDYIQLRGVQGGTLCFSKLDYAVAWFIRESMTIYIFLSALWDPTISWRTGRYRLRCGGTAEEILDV
Type: biochemical, canine
Procedure, shortened: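 LC/MS/MS measurement of glucosylceramide and NBD-ceramide after a 1 h, 37 °C reaction with 100 μM UDP-glucose and 10 μM C6-NBD-ceramide gave IC50s or percent inhibition.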

| SMILES | % inhibition generated from Assay 1 |
| --- | --- |
| O=C(N[C@H](CN1CCCC1)[C@H](O)c1ccc2c(c1)OCCO2)C(=O)N1CCN(c2ccc(F)cc2)CC1 [Compound 252, N-((1R,2R)-1-(2,3-dihydrobenzo[b][1,4]dioxin-6-yl)-1-hydroxy-3-(pyrrolidin-1-yl)propan-2-yl)-2-(4-(4-fluorophenyl)piperazin-1-yl)-2-oxoacetamide] | A* (the compound had a % inhibition of a percent inhibition of greater than or equal to about 50%) |

Same assay, conditions: Table 2; data without asterisk; read-out: IC50 (nM) generated from Assay 1

| IC50 | SMILES |
| --- | --- |
| < 50 nM | O=C(N[C@H](CN1CCC1)[C@H](O)c1ccc(OC2CC2)c(Cl)c1)C(=O)c1ccc(-c2ccc(F)cc2)cc1 [Compound 253, N-((1R,2R)-3-(azetidin-1-yl)-1-(3-chloro-4-cyclopropoxyphenyl)-1-hydroxypropan-2-yl)-2-(4′-fluoro-[1,1′-biphenyl]-4-yl)-2-oxoacetamide] |
| < 50 nM | O=C(N[C@H](CN1CCCC1)[C@H](O)c1cc(F)c2c(c1)OCCO2)C(=O)N1CCN(c2ccc(F)cc2)CC1 [Compound 254, N-((1R,2R)-1-(8-fluoro-2,3-dihydrobenzo[b][1,4]dioxin-6-yl)-1-hydroxy-3-(pyrrolidin-1-yl)propan-2-yl)-2-(4-(4-fluorophenyl)piperazin-1-yl)-2-oxoacetamide] |
| < 50 nM | CC(C)(C)c1ccc(-c2ccc(C(=O)C(=O)N[C@H](CN3CCCC3)[C@H](O)c3ccc(OC4CC4)c(Cl)c3)cc2)cc1 [Compound 255, 2-(4′-(tert-butyl)-[1,1′-biphenyl]-4-yl)-N-((1R,2R)-1-(3-chloro-4-cyclopropoxyphenyl)-1-hydroxy-3-(pyrrolidin-1-yl)propan-2-yl)-2-oxoacetamide] |
| < 50 nM | CC(C)n1ncc2ccc(-c3ccc(C(=O)C(=O)N[C@H](CN4CCCC4)[C@H](O)c4ccc(OC5CC5)c(Cl)c4)cc3)cc21 [Compound 256, N-((1R,2R)-1-(3-chloro-4-cyclopropoxyphenyl)-1-hydroxy-3-(pyrrolidin-1-yl)propan-2-yl)-2-(4-(1-isopropyl-1H-indazol-6-yl)phenyl)-2-oxoacetamide] |
| < 50 nM | CC(C)n1cc2ccc(-c3ccc(C(=O)C(=O)N[C@H](CN4CCCC4)[C@H](O)c4ccc(OC5CC5)c(Cl)c4)cc3)cc2n1 [Compound 257, N-((1R,2R)-1-(3-chloro-4-cyclopropoxyphenyl)-1-hydroxy-3-(pyrrolidin-1-yl)propan-2-yl)-2-(4-(2-isopropyl-2H-indazol-6-yl)phenyl)-2-oxoacetamide] |
| < 50 nM | O=C(N[C@H](CN1CCCC1)[C@H](O)c1cc(F)c2c(c1)OCCO2)C(=O)c1ccc(-c2ccc(Cl)s2)cc1 [Compound 360, 2-(4-(5-chlorothiophen-2-yl)phenyl)-N-((1R,2R)-1-(8-fluoro-2,3-dihydrobenzo[b][1,4]dioxin-6-yl)-1-hydroxy-3-(pyrrolidin-1-yl)propan-2-yl)-2-oxoacetamide] |
| 50 to 5000 nM | COc1c(F)cc([C@@H](O)[C@@H](CN2CCCC2)NC(=O)C(=O)c2ccc(-c3ccc(F)cc3)cc2)cc1OC(C)C [Compound 361, N-((1R,2R)-1-(3-fluoro-5-isopropoxy-4-methoxyphenyl)-1-hydroxy-3-(pyrrolidin-1-yl)propan-2-yl)-2-(4′-fluoro-[1,1′-biphenyl]-4-yl)-2-oxoacetamide] |
| < 50 nM | CC1(C)COc2c(F)cc([C@@H](O)[C@@H](CN3CCCC3)NC(=O)C(=O)c3ccc(-c4ccc(F)cc4)cc3)cc2O1 [Compound 362, N-((1R,2R)-1-(8-fluoro-3,3-dimethyl-2,3-dihydrobenzo[b][1,4]dioxin-6-yl)-1-hydroxy-3-(pyrrolidin-1-yl)propan-2-yl)-2-(4′-fluoro-[1,1′-biphenyl]-4-yl)-2-oxoacetamide] |
| < 50 nM | O=C(N[C@H](CN1CCCC1)[C@H](O)c1ccc(OC2CC2)c(Cl)c1)C(=O)c1ccc(-c2ccc(Cl)s2)cc1 [Compound 363, N-((1R,2R)-1-(3-chloro-4-cyclopropoxyphenyl)-1-hydroxy-3-(pyrrolidin-1-yl)propan-2-yl)-2-(4-(5-chlorothiophen-2-yl)phenyl)-2-oxoacetamide] |
| 50 to 5000 nM | COc1c(F)cc([C@@H](O)[C@@H](CN2CCCC2)NC(=O)C(=O)c2cc3ccc(Cl)cc3s2)cc1OC(C)C [Compound 364, 2-(6-chlorobenzo[b]thiophen-2-yl)-N-((1R,2R)-1-(3-fluoro-5-isopropoxy-4-methoxyphenyl)-1-hydroxy-3-(pyrrolidin-1-yl)propan-2-yl)-2-oxoacetamide] |
| < 50 nM | O=C(N[C@H](CN1CCCC1)[C@H](O)c1ccc(OC2CC2)c(Cl)c1)C(=O)c1cc2ccc(Cl)cc2o1 [Compound 365, N-((1R,2R)-1-(3-chloro-4-cyclopropoxyphenyl)-1-hydroxy-3-(pyrrolidin-1-yl)propan-2-yl)-2-(6-chlorobenzofuran-2-yl)-2-oxoacetamide] |
| < 50 nM | O=C(N[C@H](CN1CCCC1)[C@H](O)c1cc(F)c2c(c1)OCCO2)C(=O)c1cc2ccc(Cl)cc2o1 [Compound 366, 2-(6-chlorobenzofuran-2-yl)-N-((1R,2R)-1-(8-fluoro-2,3-dihydrobenzo[b][1,4]dioxin-6-yl)-1-hydroxy-3-(pyrrolidin-1-yl)propan-2-yl)-2-oxoacetamide] |
| < 50 nM | O=C(N[C@H](CN1CCCC1)[C@H](O)c1ccc(OC2CC2)c(Cl)c1)C(=O)c1ccc(N2CCOCC2)cc1 [Compound 368, N-((1R,2R)-1-(3-chloro-4-cyclopropoxyphenyl)-1-hydroxy-3-(pyrrolidin-1-yl)propan-2-yl)-2-(4-morpholinophenyl)-2-oxoacetamide] |
| < 50 nM | O=C(N[C@H](CN1CCC1)[C@H](O)c1cc(F)c2c(c1)OCCO2)C(=O)c1ccc(N2CCOCC2)cc1 [Compound 369, N-((1R,2R)-3-(azetidin-1-yl)-1-(8-fluoro-2,3-dihydrobenzo[b][1,4]dioxin-6-yl)-1-hydroxypropan-2-yl)-2-(4-morpholinophenyl)-2-oxoacetamide] |
| < 50 nM | O=C(N[C@H](CN1CCCC1)[C@H](O)c1ccc(OC2CC2)c(Cl)c1)C(=O)c1ccc(-c2ccc(C3CC3)cc2)cc1 [Compound 370, N-((1R,2R)-1-(3-chloro-4-cyclopropoxyphenyl)-1-hydroxy-3-(pyrrolidin-1-yl)propan-2-yl)-2-(4′-cyclopropyl-[1,1′-biphenyl]-4-yl)-2-oxoacetamide] |
| < 50 nM | O=C(N[C@H](CN1CCCC1)[C@H](O)c1cc(F)c2c(c1)OCCO2)C(=O)c1ccc(-c2ccc(C3CC3)cc2)cc1 [Compound 371, 2-(4′-cyclopropyl-[1,1′-biphenyl]-4-yl)-N-((1R,2R)-1-(8-fluoro-2,3-dihydrobenzo[b][1,4]dioxin-6-yl)-1-hydroxy-3-(pyrrolidin-1-yl)propan-2-yl)-2-oxoacetamide] |
| < 50 nM | O=C(N[C@H](CN1CCCC1)[C@H](O)c1ccc(OC2CC2)c(Cl)c1)C(=O)c1ccc(C2CCOCC2)cc1 [Compound 372, N-((1R,2R)-1-(3-chloro-4-cyclopropoxyphenyl)-1-hydroxy-3-(pyrrolidin-1-yl)propan-2-yl)-2-oxo-2-(4-(tetrahydro-2H-pyran-4-yl)phenyl)acetamide] |
| < 50 nM | O=C(N[C@H](CN1CCCC1)[C@H](O)c1cc(F)c2c(c1)OCCO2)C(=O)c1ccc(C2CCOCC2)cc1 [Compound 373, N-((1R,2R)-1-(8-fluoro-2,3-dihydrobenzo[b][1,4]dioxin-6-yl)-1-hydroxy-3-(pyrrolidin-1-yl)propan-2-yl)-2-oxo-2-(4-(tetrahydro-2H-pyran-4-yl)phenyl)acetamide] |
| 50 to 5000 nM | O=C(N[C@H](CN1CCCC1)[C@H](O)c1ccc(OC2CC2)cc1)C(=O)c1ccc(N2CCOCC2)cc1 [Compound 374, N-((1R,2R)-1-(4-cyclopropoxyphenyl)-1-hydroxy-3-(pyrrolidin-1-yl)propan-2-yl)-2-(4-morpholinophenyl)-2-oxoacetamide] |
| 50 to 5000 nM | O=C(N[C@H](CN1CCCC1)[C@H](O)c1ccc(OC2CC2)c(Cl)c1)C(=O)c1ccc(N2CCC2)cc1 [Compound 375, 2-(4-(azetidin-1-yl)phenyl)-N-((1R,2R)-1-(3-chloro-4-cyclopropoxyphenyl)-1-hydroxy-3-(pyrrolidin-1-yl)propan-2-yl)-2-oxoacetamide] |
| < 50 nM | O=C(N[C@H](CN1CCCC1)[C@H](O)c1ccc(OC2CC2)c(Cl)c1)C(=O)c1ccc(F)cc1 [Compound 376, N-((1R,2R)-1-(3-chloro-4-cyclopropoxyphenyl)-1-hydroxy-3-(pyrrolidin-1-yl)propan-2-yl)-2-(4-fluorophenyl)-2-oxoacetamide] |
| < 50 nM | O=C(N[C@H](CN1CCCC1)[C@H](O)c1ccc(OC2CC2)c(Cl)c1)C(=O)c1cc2ccccc2s1 [Compound 377, 2-(benzo[b]thiophen-2-yl)-N-((1R,2R)-1-(3-chloro-4-cyclopropoxyphenyl)-1-hydroxy-3-(pyrrolidin-1-yl)propan-2-yl)-2-oxoacetamide] |
| < 50 nM | C#Cc1ccc(C(=O)C(=O)N[C@H](CN2CCCC2)[C@H](O)c2ccc(OC3CC3)c(F)c2)cc1 [Compound 378, N-((1R,2R)-1-(4-cyclopropoxy-3-fluorophenyl)-1-hydroxy-3-(pyrrolidin-1-yl)propan-2-yl)-2-(4-ethynylphenyl)-2-oxoacetamide] |
| < 50 nM | O=C(N[C@H](CN1CCCC1)[C@H](O)c1cc(F)c2c(c1)OCCO2)C(=O)c1ccc(F)cc1 [Compound 379, N-((1R,2R)-1-(8-fluoro-2,3-dihydrobenzo[b][1,4]dioxin-6-yl)-1-hydroxy-3-(pyrrolidin-1-yl)propan-2-yl)-2-(4-fluorophenyl)-2-oxoacetamide] |
